Measured values from PubChem BioAssay AID1918932 (Molecular Pharmacology Branch, DTP, NCI, 2023).

System: 171881-019-R-J1-PDC complex spheroid viability
Assay: Anticancer human tumor 171881-019-R-J1-PDC patient-derived invasive breast carcinoma cell line growth inhibition
Settings: for IC50: curve of first compound; for viability, T/C: stronger effect = lower value
Procedure, shortened: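 Multicellular complex spheroids of tumor cells with human endothelial cells (HUVEC) and mesenchymal stem cells; the LSD1 inhibitor iadademstat was combined with standard-of-care or investigational agents. Top concentration at or near clinical Cmax, half-log dilutions; final DMSO ≤0.25%.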

[1] = second compound 0.1 µM, first compound 0.0316 µM
[2] = second compound 0.1 µM, first compound 0.1 µM
[3] = second compound 0.1 µM, first compound 0.316 µM
[4] = second compound 0.1 µM, first compound 1 µM
[5] = second compound 0.1 µM, first compound 3.16 µM
[6] = second compound 0.1 µM, first compound 10 µM
[7] = second compound 0.316 µM, first compound 0.0316 µM
[8] = second compound 0.316 µM, first compound 0.1 µM
[9] = second compound 0.316 µM, first compound 0.316 µM
[10] = second compound 0.316 µM, first compound 1 µM
[11] = second compound 0.316 µM, first compound 3.16 µM
[12] = second compound 0.316 µM, first compound 10 µM
[13] = second compound 1 µM, first compound 0.0316 µM
[14] = second compound 1 µM, first compound 0.1 µM
[15] = second compound 1 µM, first compound 0.316 µM
[16] = second compound 1 µM, first compound 1 µM
[17] = second compound 1 µM, first compound 3.16 µM
[18] = second compound 1 µM, first compound 10 µM
[19] = second compound 3.16 µM, first compound 0.0316 µM
[20] = second compound 3.16 µM, first compound 0.1 µM
[21] = second compound 3.16 µM, first compound 0.316 µM
[22] = second compound 3.16 µM, first compound 1 µM
[23] = second compound 3.16 µM, first compound 3.16 µM
[24] = second compound 3.16 µM, first compound 10 µM
[25] = second compound 10 µM, first compound 0.0316 µM
[26] = second compound 10 µM, first compound 0.1 µM
[27] = second compound 10 µM, first compound 0.316 µM
[28] = second compound 10 µM, first compound 1 µM
[29] = second compound 10 µM, first compound 3.16 µM
[30] = second compound 10 µM, first compound 10 µM
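Further: spheroids exposed to agents for 7 days after 3 days growth.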

Row | Compound | IC50 (second compound 0.1 µM) [µM] | IC50 (second compound 0.316 µM) [µM] | IC50 (second compound 1 µM) [µM] | IC50 (second compound 3.16 µM) [µM] | IC50 (second compound 10 µM) [µM] | viability, T/C [1] [%] | viability, T/C [2] [%] | viability, T/C [3] [%] | viability, T/C [4] [%] | viability, T/C [5] [%] | viability, T/C [6] [%] | viability, T/C [7] [%] | viability, T/C [8] [%] | viability, T/C [9] [%] | viability, T/C [10] [%] | viability, T/C [11] [%] | viability, T/C [12] [%] | viability, T/C [13] [%] | viability, T/C [14] [%] | viability, T/C [15] [%] | other results
1 | CC1(C)CCC(CN2CCN(c3ccc(C(=O)NS(=O)(=O)c4ccc(NCC5CCOCC5)c([N+](=O)[O-])c4)c(Oc4cnc5[nH]ccc5c4)c3)CC2)=C(c2ccc(Cl)cc2)C1 + NC1CCC(NC2CC2c2ccccc2)CC1 | 2.21 | 2.3 | 2.11 | 1.72 | 2.01 | 71.9 | 92.7 | 68.4 | 67.2 | 42.7 | 2.57 | 79.3 | 83.8 | 68.4 | 66.9 | 44.4 | 2.71 | 88.7 | 89.3 | 73.8 | viability, T/C [16]: 74.3%; viability, T/C [17]: 37.9%; viability, T/C [18]: 7.6%; viability, T/C [19]: 79.6%; viability, T/C [20]: 74.9%; viability, T/C [21]: 78.7%; viability, T/C [22]: 61.4%; viability, T/C [23]: 35.7%; viability, T/C [24]: 3.1%; viability, T/C [25]: 91.3%; viability, T/C [26]: 95.5%; viability, T/C [27]: 76%; viability, T/C [28]: 67.5%; viability, T/C [29]: 39.5%; viability, T/C [30]: 2.78%
2 | CC1COCCN1c1cc(C2(S(C)(=N)=O)CC2)nc(-c2ccnc3[nH]ccc23)n1 (stereo not given) + NC1CCC(NC2CC2c2ccccc2)CC1 | 1.68 | 1.84 | 1.78 | 1.83 | 2.05 | 85.4 | 85 | 96.4 | 73.3 | 20.8 | 9.16 | 85.1 | 84.2 | 94.5 | 81.7 | 21.7 | 9.42 | 88.8 | 85.4 | 87 | viability, T/C [16]: 76.2%; viability, T/C [17]: 23.7%; viability, T/C [18]: 9.58%; viability, T/C [19]: 88.8%; viability, T/C [20]: 83%; viability, T/C [21]: 86.1%; viability, T/C [22]: 78.7%; viability, T/C [23]: 24.2%; viability, T/C [24]: 11.3%; viability, T/C [25]: 81.8%; viability, T/C [26]: 105%; viability, T/C [27]: 84.7%; viability, T/C [28]: 84.2%; viability, T/C [29]: 29.4%; viability, T/C [30]: 9.99%
